{
  "source": "patent US7734426B2",
  "about": "(priority 1999, dated 2010)",
  "note": "“Also recorded” adds a separate entry of the source. Where no end group is shown, it is not given here.",
  "data": [
    {"system": "hippocampal interneurons", "conditions": "cited from earlier work", "values": [
      {"compound": "CCK-8S (DYMGWMDF; not fully specified; UniProt P06307 96-103, looked up)", "effect on action potential frequency / currents": "increased action potential frequency or generated inward currents"}
    ]},
    {"system": "CA1 pyramidal cells in hippocampal slices", "conditions": "cited from earlier work", "values": [
      {"compound": "C[N+](C)(C)CCOC(N)=O", "note": "[carbachol]", "changes in the action potential": "several reversible changes in the action potential"}
    ]},
    {"system": "CA1 region of hippocampal slices", "conditions": "cited from earlier work", "values": [
      {"compound": "O=CC[C@@H](O)[C@H](O)[C@H](O)CO", "note": "[2-DG, 2-deoxy-D-glucose]", "effect on synaptic transmission": "reversibly suppresses synaptic transmission"}
    ]},
    {"system": "CNS stem cells", "conditions": "cited from earlier work", "units": {"neuronal differentiation, % of the cells": "%"}, "values": [
      {"compound": "platelet-derived growth factor [PDGF]", "neuronal differentiation, % of the cells": 90}
    ]},
    {"system": "NG-108-15 Cells", "assay_type": "cell-based", "conditions": "not given", "units": {"Onset Time": "s"}, "values": [
      {"compound": "C=C(C=O)C[C@@H]1C[C@H](O)[C@]2(C)O[C@@H]3C[C@@H]4O[C@@H]5C[C@]6(C)O[C@]7(C)CC[C@@H]8O[C@@H]9C[C@]%10(C)O[C@@H]%11C(C)=CC(=O)O[C@H]%11C[C@H]%10O[C@H]9C[C@@H](C)[C@H]8O[C@H]7C[C@H]6O[C@H]5C/C=C\\[C@H]4O[C@H]3C[C@H]2O1", "note": "[brevetoxin]", "Effect": "Na^+ channel", "Onset Time": "<60", "inhibit repetitive firing": "brevetoxin*"},
      {"compound": "N=C(N)NC(=O)c1nc(Cl)c(N)nc1N", "note": "[amiloride]", "Effect": "L-type Ca^2+ channel", "Onset Time": "<60", "inhibit repetitive firing": "amiloride*"},
      {"compound": "COc1ccc(CCN(C)CCCC(C#N)(c2ccc(OC)c(OC)c2)C(C)C)cc1OC", "note": "(stereo not drawn) [verapamil]", "Effect": "L-type Ca^2+ channel", "Onset Time": "<60", "inhibit repetitive firing": "verapamil*"},
      {"compound": "Charybdotoxin", "Effect": "Kca “BK”-type channel", "Onset Time": "<60", "inhibit repetitive firing": "Charybdotoxin*"},
      {"compound": "COC(=O)C1=C(C)NC(C)=C(C(=O)OC)C1c1ccccc1[N+](=O)[O-]", "note": "[nifedipine]", "inhibit repetitive firing": "nifedipine*"},
      {"compound": "C[C@@H]1O[C@@H](O[C@H]2C[C@@H](O)[C@]3(CO)[C@H]4[C@H](O)C[C@]5(C)[C@@H](C6=CC(=O)OC6)CC[C@]5(O)[C@@H]4CC[C@]3(O)C2)[C@H](O)[C@H](O)[C@H]1O", "note": "[ouabain]", "Effect": "Na^+—Ca^2+ pump; also recorded: inhibition", "Onset Time": "<60", "inhibit repetitive firing": "ouabain*"},
      {"compound": "C[N+](C)(C)CCOC(N)=O", "note": "[carbachol]", "Effect": "muscarinic receptor", "Onset Time": "<60", "inhibit repetitive firing": "carbachol*"},
      {"compound": "NC1=N[C@H](O)[C@H]2[C@H]3O[C@]4(O)O[C@@H]([C@@H](O)[C@@]2(N1)[C@@H]4O)[C@]3(O)CO", "note": "[tetrodotoxin]", "Effect": "Na^+ channel", "Onset Time": "<60", "effect on the AP": "affected the AP", "inhibit repetitive firing": "tetrodotoxin*"},
      {"compound": "C=C[C@H]1C[N@@]2CC[C@H]1C[C@H]2[C@H](O)c1ccnc2ccc(OC)cc12", "note": "[quinine]", "Effect": "non-specific K^+ channel", "Onset Time": "<60", "inhibit repetitive firing": "quinine*"}
    ]}
  ]
}
